Columns and labels:
[1] = tested on: patients treated with Methadone in the START trial; experiment: Completion of 24-week Methadone treatment, START samples of Example 2; format: in vivo, human; settings: 24-week treatment
Procedure: (§1) Samples from patients treated with Methadone in the START trial described in Example 1 above were used (N=352). […] Each model was tested as described below against Sample 1, Sample 2 and/or the Full Sample.

[2] = tested on: patients treated with Methadone in the START trial; experiment: Baseline model (GeneSight Analgesic test) binning vs Methadone completion; format: in vivo, human; settings: Full Sample
Procedure: (§2) For the model analyses, models were developed that sort patients into one of three categories, Green (‘G’) Yellow (‘Y’) or Red (‘R’). Patients determined to be high risk for non-completion by the model are placed into the Red Bin. Patients at intermediate risk of non-completion are placed in the Yellow Bin, and for this study, Yellow Bin patients are treated the same as patients found to be at Low Risk of non-completion, or those who are placed in the Green Bin. Thus, the Green and Yellow bins are combined for analysis.
The GeneSight Analgesic test (commercial test available from Assurex Health, Inc.) was used as a baseline to determine High Risk patients entering methadone maintenance therapy. Furthremore, the following PK, PD and PK/PD models were evaluated.
as §1
(§3) Pearson's product moment, Chi-square with Yates correction were calculated. Diagnostic tests, odds ratios, Pearson's product moment, Chi-square with Yates correction were calculated using MEDCALC and R version 3.3.1.

[3] = tested on: patients treated with Methadone in the START trial; experiment: PK model (predicted exposure) binning vs Methadone completion; format: in vivo, human
Procedure: as §2
The PK model represents a physiologically based pharmacokinetic algorithm that combines combinatorial pharmacogenetics with a physiological algorithm for predicting medication exposure, as described elsewhere herein. Model assignments to G Y or R were based on the therapeutic ranges provided by the literature for methadone as shown in Table 15.
as §1, §3

[4] = tested on: patients treated with Methadone in the START trial; experiment: PD Model 1 binning vs Methadone completion; format: in vivo, human
Procedure: as §2
PD Model 1: The completion percentage was calculated for each genotype. For each gene and genotype completion percentage, the means and standard deviations were calculated. For each genotype that was greater than or equal to one standard deviation away from the mean, towards higher completion, a score of 1 was given. For each genotype that was greater than or equal to one standard deviation away from the mean, towards lower completion, a score of −1 was given. All others received a score of 0. The patient's PD risk was calculated by summing the total genotype risk score. The individual risk scores were combined to create the SumRisk variable; a final score of −1 was converted to Green, a score of 0 was converted to Yellow, and a score of 1 was converted to Red. […] A listing of tested alleles, and score assignments for PD Model 1 can be found in Table 16.
as §1, §3

START trial patients = experiment: Combinatorial gene modeling: composite genetic risk score (biology-based and data-based) vs non-completion
Source text: We next undertook a combinatorial approach to assess whether there was a composite genetic risk score having a significant association with completion rate. Risk scores were assigned using two different models, a “biology-based” model and a “data-based” model. The biology based risk scores were assigned using the most biologically appropriate hypothesis for a given genotype or haplotype, for example, based upon the enzyme activity reported to be associated with that genotype or haplotype in the scientific literature (e.g., as shown in Table 1 above) in combination with current biological understanding of the drug including both its pharmacokinetics (how it is absorbed, distributed, metabolized and excreted) and its pharmacodynamics (how it effects the body).
In contrast, the data-based risk scores were assigned based on how the phenotype of the genotype or haplotype for each gene was associated with non-completion in the single-gene analysis above. For example, a patient may be scored 0 if his/her phenotype is reduced, 0.5 if intermediate, and 1 if high.
We then used a composite risk score, which is the sum of the individual risk scores for each gene of interest, to assess the impact of various combinations of genetic markers on the ability of the patients to complete the 24-week drug treatment regimen. The completion/non-completion was modeled using a logistic regression which included the total genetic risk score and dose-bin-category. This model assesses the effect of the total genetic risk score on the non-completion rate while adjusting for drug dose level. The likelihood of non-completion with respect to the total genetic risk score is represented by the odds ratio. If a p-value is <0.05, then it is considered that statistically significant that the non-completion is associated with the total genetic risk score.

[5] = PD Model 1, Full Sample, COMT Low Risk, SLC6A4 High Risk (Yellow)
[6] = PD Model 1, Full Sample, COMT Low Risk, SLC6A4 Normal Risk (Green)
[7] = PD Model 1, Full Sample, COMT Normal Risk, SLC6A4 High Risk (Red)
[8] = PD Model 1, Full Sample, COMT Normal Risk, SLC6A4 Normal Risk (Yellow)
[9] = PD Model 1, Full Sample, Green bin
[10] = PD Model 1, Full Sample, Red bin
[11] = PD Model 1, Full Sample, Yellow bin
[12] = PD Model 1, Sample 1, COMT Low Risk, SLC6A4 High Risk (Yellow)
[13] = PD Model 1, Sample 1, COMT Low Risk, SLC6A4 Normal Risk (Green)
[14] = PD Model 1, Sample 1, COMT Normal Risk, SLC6A4 High Risk (Red)
[15] = PD Model 1, Sample 1, COMT Normal Risk, SLC6A4 Normal Risk (Yellow)
[16] = PD Model 1, Sample 1, Green bin
[17] = PD Model 1, Sample 1, Yellow bin
[18] = PD Model 1, Sample 2, COMT Low Risk, SLC6A4 High Risk (Yellow)
[19] = PD Model 1, Sample 2, COMT Low Risk, SLC6A4 Normal Risk (Green)
[20] = PD Model 1, Sample 2, COMT Normal Risk, SLC6A4 High Risk (Red)
[21] = PD Model 1, Sample 2, COMT Normal Risk, SLC6A4 Normal Risk (Yellow)
[22] = PD Model 1, Sample 2, Green bin
[23] = PD Model 1, Sample 2, Yellow bin
[24] = composite genetic risk score vs non-completion, adjusted for Dose-bin, 25 gene combinations

Which results are given for CCC(=O)C(CC(C)N(C)C)(c1ccccc1)c1ccccc1 (stereo not shown) [Methadone, methadone]?
Completers ([1]; Sample 1 (N=176)): 156; non-completers ([1]; Sample 1 (N=176)): 20; Completers ([1]; Sample 2 (N=176)): 159; non-completers ([1]; Sample 2 (N=176)): 17; Completers ([2]; Green bin): 170; Non Completers ([2]; Green bin): 19; Completers ([2]; Red bin): 28; Non Completers ([2]; Red bin): 3; Completers ([2]; Yellow bin): 109; Non Completers ([2]; Yellow bin): 23; Completers ([3]; Full Sample, Green bin): 181; Non Completers ([3]; Full Sample, Green bin): 11; Completers ([3]; Full Sample, Red bin): 33; Non Completers ([3]; Full Sample, Red bin): 22; Completers ([3]; Full Sample, Yellow bin): 93; Non Completers ([3]; Full Sample, Yellow bin): 12; Completers ([3]; Sample 1, Green bin): 91; Non Completers ([3]; Sample 1, Green bin): 6; Completers ([3]; Sample 1, Red bin): 12; Non Completers ([3]; Sample 1, Red bin): 8; Completers ([3]; Sample 1, Yellow bin): 53; Non Completers ([3]; Sample 1, Yellow bin): 6; Completers ([3]; Sample 2, Green bin): 94; Non Completers ([3]; Sample 2, Green bin): 7; Completers ([3]; Sample 2, Red bin): 13; Non Completers ([3]; Sample 2, Red bin): 6; Completers ([3]; Sample 2, Yellow bin): 52; Non Completers ([3]; Sample 2, Yellow bin): 4; Completers [4, 5]: 13; Non Completers [4, 5]: 1; Completers [4, 6]: 62; Non Completers [4, 6]: 4; Completers [4, 7]: 39; Non Completers [4, 7]: 13; Completers [4, 8]: 193; Non Completers [4, 8]: 27; Completers [4, 9]: 62; Non Completers [4, 9]: 4; Odds Ratio for non-completion ([4]; PD Model 1, Full Sample, LR/HR vs. NR/NR): 0.5499; Odds Ratio for non-completion ([4]; PD Model 1, Full Sample, LR/NR vs. NR/HR): 0.1935; Odds Ratio for non-completion ([4]; PD Model 1, Full Sample, LR/NR vs. NR/NR): 0.4612; Odds Ratio for non-completion ([4]; PD Model 1, Full Sample, NR/HR vs. NR/NR): 2.3827; Completers [4, 10]: 39; Non Completers [4, 10]: 13; Completers [4, 11]: 206; Non Completers [4, 11]: 28; Completers [4, 12]: 8; Non Completers [4, 12]: 0; Completers [4, 13]: 34; Non Completers [4, 13]: 1; Completers [4, 14]: 20; Non Completers [4, 14]: 7; Completers [4, 15]: 94; Non Completers [4, 15]: 12; Completers [4, 16]: 34; Non Completers [4, 16]: 1; Odds Ratio for non-completion ([4]; PD Model 1, Sample 1, LR/HR vs. NR/NR): 0.4447; Odds Ratio for non-completion ([4]; PD Model 1, Sample 1, LR/NR vs. NR/HR): 0.0840; Odds Ratio for non-completion ([4]; PD Model 1, Sample 1, LR/NR vs. NR/NR): 0.2304; Odds Ratio for non-completion ([4]; PD Model 1, Sample 1, NR/HR vs. NR/NR): 2.7417; Completers ([4]; PD Model 1, Sample 1, Red bin): 20; Non Completers ([4]; PD Model 1, Sample 1, Red bin): 7; Completers [4, 17]: 102; Non Completers [4, 17]: 12; Completers [4, 18]: 7; Non Completers [4, 18]: 0; Completers [4, 19]: 39; Non Completers [4, 19]: 2; Completers [4, 20]: 21; Non Completers [4, 20]: 6; Completers [4, 21]: 92; Non Completers [4, 21]: 9; Completers [4, 22]: 39; Non Completers [4, 22]: 2; Odds Ratio for non-completion ([4]; PD Model 1, Sample 2, LR/HR vs. NR/NR): 0.6491; Odds Ratio for non-completion ([4]; PD Model 1, Sample 2, LR/NR vs. NR/HR): 0.1795; Odds Ratio for non-completion ([4]; PD Model 1, Sample 2, LR/NR vs. NR/NR): 0.5242; Odds Ratio for non-completion ([4]; PD Model 1, Sample 2, NR/HR vs. NR/NR): 2.9206; Completers ([4]; PD Model 1, Sample 2, Red bin): 21; Non Completers ([4]; PD Model 1, Sample 2, Red bin): 6; Completers [4, 23]: 99; Non Completers [4, 23]: 9; Odds Ratio for Non-Completers (START trial patients; Biology-Based, ORG4-CYP2B6-CYP2C19): 1.38; Odds Ratio for Non-Completers (START trial patients; Biology-Based, ORG4-CYP2C19): 1.53; Odds Ratio for Non-Completers (START trial patients; Biology-Based, ORG4-CYP2C19-1A2): 1.53; Odds Ratio for Non-Completers (START trial patients; Biology-Based, ORG4-CYP2C19-2C9): 1.44; Odds Ratio for Non-Completers (START trial patients; Biology-Based, ORG4-CYP2C19-2D6): 1.34; Odds Ratio for Non-Completers (START trial patients; Data-Based, ORG4-CYP2B6-CYP2C19): 1.9; Odds Ratio for Non-Completers (START trial patients; Data-Based, ORG4-CYP2C19): 1.76; Odds Ratio for Non-Completers (START trial patients; Data-Based, ORG4-CYP2C19-1A2): 1.46; Odds Ratio for Non-Completers (START trial patients; Data-Based, ORG4-CYP2C19-2C9): 1.77; Odds Ratio for Non-Completers (START trial patients; Data-Based, ORG4-CYP2C19-2D6): 1.72; composite endpoints significant, biology-based model (START trial patients; [24]): 7 of 25; composite endpoints significant, data-based model (START trial patients; [24]): 23 of 25
